Tests used:
velvetleaf = test: Test B pre-/postemergence herbicide test; type: in vivo, Abutilon theophrasti; conditions: for Velvetleaf plant response rating: postemergence, scale 0 (no effect) to 100 (complete control)
Outline: (§1)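 Herbicidal effect was judged by eye on a 0–100 scale after plants stood 13 to 15 days in the greenhouse following pre- or postemergence treatment with surfactant-containing formulations.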

rice [1] = test: Test B flooded paddy test; type: in vivo, Oryza sativa; conditions: 1000 g ai/ha, visual rating, scale 0 to 100 (0 no effect, 100 complete control), 13 to 15 days
Outline: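 Treated at 2-leaf (paddy) or 1–4-leaf, 2–18 cm (postemergence); greenhouse 13–15 d; visual score vs control, 0 none to 100 complete control; dash = not tested.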

Surinam grass = test: Test B pre-/postemergence herbicide test; type: in vivo, Urochloa decumbens; conditions: for Surinam Grass plant response rating: postemergence, scale 0 (no effect) to 100 (complete control)
Outline: as §1

large crabgrass = test: Test B pre-/postemergence herbicide test; type: in vivo, Digitaria sanguinalis; conditions: for Crabgrass, Large plant response rating: postemergence, scale 0 (no effect) to 100 (complete control)
Outline: as §1

corn = test: Test B pre-/postemergence herbicide test; type: in vivo, Zea mays; conditions: for Corn plant response rating: postemergence, scale 0 (no effect) to 100 (complete control)
Outline: as §1

barnyardgrass [2] = test: Test C flooded paddy test; type: in vivo, Echinochloa crus-galli
Outline: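 Plants were grown to the 1- to 4-leaf stage (2–18 cm) and then treated postemergence, or grown to the 2-leaf stage for the flooded paddy test. They were held in a greenhouse for 12 to 14 days and then scored by eye against controls, where 0 is no effect and 100 is complete control.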

barnyardgrass [3] = test: Test B pre-/postemergence herbicide test; type: in vivo, Echinochloa crus-galli; conditions: 0 = no effect, 100 = complete control, preemergence
Outline: (§2)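 Formulation: non-phytotoxic solvent mix with surfactant. Timing: preemergence on seed and postemergence on 2–18 cm plants, applied concurrently. Readout after 13–15 d greenhouse: visual 0–100 control rating against controls.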

pigweed = test: Test B pre-/postemergence herbicide test; type: in vivo, Amaranthus retroflexus
Outline: as §1

giant foxtail = test: Test B pre-/postemergence herbicide test; type: in vivo, Setaria faberi; conditions: for Foxtail, Giant plant response rating: postemergence, scale 0 (no effect) to 100 (complete control)
Outline: as §1

[4] = test system: smallflower umbrella sedge; test: Test C flooded paddy test; type: in vivo, Cyperus difformis
cocklebur = test: Test B pre-/postemergence herbicide test; type: in vivo, Xanthium strumarium; conditions: for Cocklebur plant response rating: postemergence, scale 0 (no effect) to 100 (complete control)
Outline: as §2

ducksalad [5] = test: Test B flooded paddy test; type: in vivo, Heteranthera limosa; conditions: 1000 g ai/ha, visual rating, scale 0 to 100 (0 no effect, 100 complete control), 13 to 15 days
Outline: (§3)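 Scale 0–100: zero equals no visible effect, 100 complete control, judged by eye relative to controls. Timing: 13 to 15 days in greenhouse post-treatment. Growth stage at spraying: two leaves (paddy) or one to four leaves, 2–18 cm (postemergence).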

lambsquarters = test: Test B pre-/postemergence herbicide test; type: in vivo, Chenopodium album; conditions: for Lambsquarters plant response rating: postemergence, scale 0 (no effect) to 100 (complete control)
Outline: as §1

wheat = test: Test B postemergence herbicide test; type: in vivo, Triticum aestivum; design: key to Wheat plant response rating: 0 = no effect, 100 = complete control; conditions: postemergence, visual rating, scale 0 (no effect) to 100 (complete control)
Outline: (§4)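 Greenhouse test; postemergence application to plants at 1–4 leaves (2–18 cm); paddy species at 2 leaves; evaluated visually vs controls at 13–15 days; scale 0–100 (100 = complete control).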

rice [6] = test: Test C flooded paddy test; type: in vivo, Oryza sativa
Outline: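 Injury scored visually against controls on a 0 (no effect) to 100 (complete control) scale, 12 to 14 days after treatment in greenhouse. Flooded paddy plants treated at 2-leaf stage; postemergence plants at 1- to 4-leaf stage, 2 to 18 cm tall.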

morningglory = test: Test B pre-/postemergence herbicide test; type: in vivo, Ipomoea coccinea; conditions: for Morningglory plant response rating: postemergence, scale 0 (no effect) to 100 (complete control)
Outline: as §2

rice [7] = test: Test B pre-/postemergence herbicide test; type: in vivo, Oryza sativa; conditions: 0 = no effect, 100 = complete control, preemergence
Outline: as §1

blackgrass = test: Test B postemergence herbicide test; type: in vivo, Alopecurus myosuroides; conditions: postemergence, visual rating, scale 0 (no effect) to 100 (complete control)
Outline: as §3

ducksalad [8] = test: Test C flooded paddy test; type: in vivo, Heteranthera limosa
barnyardgrass [9] = test: Test B flooded paddy test; type: in vivo, Echinochloa crus-galli; conditions: 1000 g ai/ha, visual rating, scale 0 to 100 (0 no effect, 100 complete control), 13 to 15 days
Outline: as §3

wild oat = test: Test B postemergence herbicide test; type: in vivo, Avena fatua; conditions: postemergence, visual rating, scale 0 (no effect) to 100 (complete control)
Outline: as §4

[10] = test system: small flower umbrella sedge; test: Test B flooded paddy test; type: in vivo, Cyperus difformis; conditions: 1000 g ai/ha, visual rating, scale 0 to 100 (0 no effect, 100 complete control), 13 to 15 days
Outline: as §3

[11] = 125 g ai/ha, 0 = no effect, 100 = complete control, preemergence
[12] = 500 g ai/ha, visual rating, 0 = no effect, 100 = complete control, preemergence
[13] = 62 g ai/ha, scale 0 to 100 (0 no effect, 100 complete control)
[14] = 125 g ai/ha, scale 0 to 100 (0 no effect, 100 complete control)
[15] = 250 g ai/ha, scale of 0 to 100, 0 is no effect, 100 is complete control
[16] = 500 g ai/ha, visual rating after 12 to 14 days, scale 0 to 100 (0 no effect, 100 complete control)

**Q.** What does the source list for `CCN(C)C(=O)c1cccc(NC(=O)c2sc(C(C)(C)C)nc2C)c1` [Compound 227]?
**A.** Velvetleaf plant response rating (0 to 100 scale) (velvetleaf; [11]): 30; Plant response rating, Velvetleaf (velvetleaf; [12]): 100; Velvetleaf plant response rating (velvetleaf; 125 g ai/ha, visual rating): 20; Velvetleaf plant response rating (velvetleaf; 500 g ai/ha, visual rating): 70; Rice plant response rating (rice [1]): 70; Surinam Grass plant response rating (0 to 100 scale) (Surinam grass; [11]): 30; Plant response rating, Surinam Grass (Surinam grass; [12]): 70; Surinam Grass plant response rating (Surinam grass; 125 g ai/ha, visual rating): 10; Surinam Grass plant response rating (Surinam grass; 500 g ai/ha, visual rating): 30; Crabgrass, Large plant response rating (0 to 100 scale) (large crabgrass; [11]): 40; Plant response rating, Crabgrass, Large (large crabgrass; [12]): 100; Crabgrass, Large plant response rating (large crabgrass; 125 g ai/ha, visual rating): 30; Crabgrass, Large plant response rating (large crabgrass; 500 g ai/ha, visual rating): 30; Corn plant response rating (0 to 100 scale) (corn; [11]): 0; Plant response rating, Corn (corn; [12]): 50; Corn plant response rating (corn; 125 g ai/ha, visual rating): 30; Corn plant response rating (corn; 500 g ai/ha, visual rating): 40; Barnyardgrass plant response rating (barnyardgrass [2]; [13]): 0; Barnyardgrass plant response rating (barnyardgrass [2]; [14]): 0; Barnyardgrass plant response rating (barnyardgrass [2]; [15]): 0; Plant response rating, Barnyardgrass (barnyardgrass [2]; [16]): 0; Barnyardgrass plant response rating (0 to 100 scale) (barnyardgrass [3]; 125 g ai/ha): 0; Plant response rating, Barnyardgrass (barnyardgrass [3]; 500 g ai/ha, visual rating): 60; Pigweed plant response rating (0 to 100 scale) (pigweed; [11]): 0; Plant response rating, Pigweed (pigweed; [12]): 100; Pigweed plant response rating (pigweed; postemergence, 125 g ai/ha, visual rating, scale 0 (no effect) to 100 (complete control)): 20; Foxtail, Giant plant response rating (0 to 100 scale) (giant foxtail; [11]): 10; Plant response rating, Foxtail, Giant (giant foxtail; [12]): 70; Foxtail, Giant plant response rating (giant foxtail; 125 g ai/ha, visual rating): 10; Foxtail, Giant plant response rating (giant foxtail; 500 g ai/ha, visual rating): 60; Sedge, Umbrella plant response rating [4, 13]: 0; Sedge, Umbrella plant response rating [4, 14]: 0; Sedge, Umbrella plant response rating [4, 15]: 0; Plant response rating, Sedge, Umbrella [4, 16]: 15; Cocklebur plant response rating (0 to 100 scale) (cocklebur; [11]): 0; Plant response rating, Cocklebur (cocklebur; [12]): 0; Cocklebur plant response rating (cocklebur; 125 g ai/ha, visual rating): 20; Cocklebur plant response rating (cocklebur; 500 g ai/ha, visual rating): 30; Ducksalad plant response rating (ducksalad [5]): 80; Lambsquarters plant response rating (0 to 100 scale) (lambsquarters; [11]): 0; Plant response rating, Lambsquarters (lambsquarters; [12]): 90; Lambsquarters plant response rating (lambsquarters; 125 g ai/ha, visual rating): 50; Lambsquarters plant response rating (lambsquarters; 500 g ai/ha, visual rating): 70; Wheat plant response rating (wheat; 125 g ai/ha): 0; Wheat plant response rating (wheat; 500 g ai/ha): 10; Rice plant response rating (rice [6]; [13]): 0; Rice plant response rating (rice [6]; [14]): 0; Rice plant response rating (rice [6]; [15]): 25; Plant response rating, Rice (rice [6]; [16]): 55; Morningglory plant response rating (0 to 100 scale) (morningglory; [11]): 0; Plant response rating, Morningglory (morningglory; [12]): 20; Morningglory plant response rating (morningglory; 125 g ai/ha, visual rating): 50; Morningglory plant response rating (morningglory; 500 g ai/ha, visual rating): 60; Rice plant response rating (0 to 100 scale) (rice [7]; 125 g ai/ha): 10; Plant response rating, Rice (rice [7]; 500 g ai/ha, visual rating): 70; Blackgrass plant response rating (blackgrass; 125 g ai/ha): 20; Blackgrass plant response rating (blackgrass; 500 g ai/ha): 30; Ducksalad plant response rating (ducksalad [8]; [13]): 0; Ducksalad plant response rating (ducksalad [8]; [14]): 0; Ducksalad plant response rating (ducksalad [8]; [15]): 0; Plant response rating, Ducksalad (ducksalad [8]; [16]): 55; Barnyardgrass plant response rating (barnyardgrass [9]): 70; Oat, Wild plant response rating (wild oat; 125 g ai/ha): 0; Oat, Wild plant response rating (wild oat; 500 g ai/ha): 0; Sedge, Umbrella plant response rating [10]: 50

Source: patent US20060069132A1, “Azolecarboxamide herbicides” (priority 2004, published 2006)
